Test results published in patent publication US11524014B2, “Pharmaceutical formulations and systems for delivery of an androgenic agent and an aromatase inhibitor with sustained multi-phasic release profiles and methods of use” (Havah Therapeutics Pty Ltd., priority 2019, dated 2022).
Values joined by “and” are separate entries in the source; they are usually repeats but may differ in a detail not shown here. Identical values can stand only once. Like-named read-outs stand apart in the source and are kept apart here.

Columns and labels:
[1] = test system: IL-6; details: female breast cells treated with testosterone (Guhl, 2012); cited from earlier work
[2] = clinical; details: female, human, in vivo; for half-life: t1/2, arithmetic mean (terminal half-life)
Experimental: Pre-menopausal women with high Mammographic Breast Density (MBD) was selected for the study. Following the successful screening, participants came to the Wellend Clinic South Australia for dosing. The participants were to be dosed while in the luteal phase of their menstrual cycle to avoid the highly changing hormonal environment of the follicular phase. Following insertion of the implant, PK blood sampling was carried out for a duration of three months. Briefly, samples were taken repeatedly on the day of dosing, daily during the first week, weekly for the next four weeks and every second week during the last eight weeks, for a total sampling period of three months. After assessments had been completed on the last day of assessments, Day 85, the trial concluded.
The sampling schedule was revised with the addition of one blood sample (at 6 hours post-dose), and no adjustment of the timing of existing time points. The duration of sampling was not extended.
In summary, following dosing on Day 1, blood samples were taken pre-dose (within one hour of dosing) and at 1, 2, 4, 6, 8 and 12 hours. Participants returned for a blood sample to be taken at 9 am in the morning on Days 2, 3, 4, 5, 8, 15, 22, 29, 43, 57, 71 and 85.
A total of 11 subjects were dosed and included in the safety analysis set. Eleven subjects were included in the PK analysis set. Women were aged between 35 and 55 years of age, Body Mass Index (BMI) range of 20-30 kg/m^2.

[3] = Population pharmacokinetic modelling of anastrozole from the Example 1 trial; type: in vivo, human
Experimental: Data in these figures are presented as mean+/−standard deviation. […] The percentage change from baseline was calculated for the average volume and plotted against time in months. […] In FIG. 8A, the data on the X axis is plotted in time (hours) after transplantation. In FIG. 8B the X axis is on a log scale. In FIGS. 8A-B, the open circles equal observed data, the black line equals median PK profile, and the dashed dark grey line equals lower limit of quantification (0.1 ng/mL).
One and two compartment models were fitted to the data. Several absorption models were tested such as first and zero order, mixed order, as well as transit compartments. Model selection was performed on the basis of statistical criteria (objective function) as well as visual inspection of diagnostic plots. […] Between-subject variability (BSV) was included on apparent clearance (CL/F), apparent volume of distribution for the central compartment (Vc/F) and the first-order absorption rate constant (KA). A proportional error model was used to describe residual unexplained variability (RUV).

[4] = oral anastrozole; cited from earlier work
[5] = two-compartment model with dual input, T+Ai implant, n=11

SMILES: C[C@]12CC[C@H]3[C@@H](CCC4=CC(=O)CC[C@@]43C)[C@@H]1CC[C@@H]2O [Testosterone, testosterone]
- time of second lower serum peak (serum testosterone after single s.c. T+Ai implant): 2-3 weeks
- Cmax, arithmetic mean (single s.c. T+Ai implant 80 mg/4 mg, women, n=11, anastrozole in plasma, testosterone in serum): 4.08 ng/mL
- reduction of IL-6 levels [1]: 53%
- Tmax ([2]; sc): 8 h
- Cmax ([2]; sc, Cmax, arithmetic mean, single s.c. T+Ai implant 80 mg/4 mg, women, n=11, anastrozole in plasma, testosterone in serum): 4.1 ng/mL
- half-life ([2]; sc, single s.c. T+Ai implant 80 mg/4 mg, women, n=11, anastrozole in plasma, testosterone in serum): 1030 h

SMILES: C[C@]12CCC(=O)C[C@@H]1CC[C@@H]1[C@@H]2CC[C@]2(C)[C@@H](O)CC[C@@H]12 [dihydrotestosterone, 5 alpha dihydrotestosterone]
- serum level measurability (serum dihydrotestosterone after single s.c. T+Ai implant): not measurable in most samples
- Tmax ([2]; Tmax post-dose, serum dihydrotestosterone, participants with measurable maximal values): 48 to 72 h

SMILES: CC(C)(C#N)c1cc(Cn2cncn2)cc(C(C)(C)C#N)c1 [Anastrozole, 2,2′-[5-(1H-1,2,4-triazol-1-ylmethyl)-1,3-phenylene]bis(2-methylpropanenitrile)]
- Fraction absorbed via second input ([3]; fixed in the model (FIX)): 0.5 FIX
- Absorbtion rate constant (ka) first input, estimated value (% RSE) [3, 5]: 0.119 (20.6) /hr
- Absorbtion rate constant (ka) second input, estimated value (% RSE) [3, 5]: 0.148 (20.5) /hr
- Apparent central volume of distribution (Vc/F), estimated value (% RSE) [3, 5]: 672 (3.0) L
- Apparent clearance (CL/F), estimated value (% RSE) [3, 5]: 1.77 L/hr and 1.77 (6.9) L/hr
- Apparent peripheral volume of distribution (Vp/F), estimated value (% RSE) [3, 5]: 106 (29.8) L
- Inter-compartmental clearance (Q/F), estimated value (% RSE) [3, 5]: 0.97 (57.7) L/hr
- Lagged time for second input, estimated value (% RSE) [3, 5]: 3.77 (9.7) h
- t1/2, arithmetic mean (terminal half-life) (female, human, in vivo, sc): 326 h
- CL/F, arithmetic mean (NCA) (human, in vivo, sc): 1.88 L/h
- half-life [4]: 48 h
- concentration at 12 weeks [2]: < 0.1 ng/mL
- Tmax ([2]; sc, Tmax, median, single s.c. T+Ai implant 80 mg/4 mg, women, n=11, anastrozole in plasma, testosterone in serum): 48.6 h
- Tmax ([2]; sc, median Tmax post-dose, plasma anastrozole after single s.c. T+Ai implant, range 1-3 days): 48 h
- half-life ([2]; sc): 336 h
